What follows are molecules tested against E3 ubiquitin-protein ligase Mdm2 (Homo sapiens, UniProt Q00987) (assay: Fluorescence-Polarization Binding Assay: The binding affinity of the MDM2 inhibitors was determined using an optimized, sensitive and quantitative fluorescence polarization-based (FP-based) binding assay using a recombinant human His-tagged MDM2 protein (residues 1-118) and a fluorescently tagged p53-based peptide.The design of the fluorescence probe was based upon a previously reported …).
Sequence of E3 ubiquitin-protein ligase Mdm2 (Q00987 whole entry, the tested form may be a part): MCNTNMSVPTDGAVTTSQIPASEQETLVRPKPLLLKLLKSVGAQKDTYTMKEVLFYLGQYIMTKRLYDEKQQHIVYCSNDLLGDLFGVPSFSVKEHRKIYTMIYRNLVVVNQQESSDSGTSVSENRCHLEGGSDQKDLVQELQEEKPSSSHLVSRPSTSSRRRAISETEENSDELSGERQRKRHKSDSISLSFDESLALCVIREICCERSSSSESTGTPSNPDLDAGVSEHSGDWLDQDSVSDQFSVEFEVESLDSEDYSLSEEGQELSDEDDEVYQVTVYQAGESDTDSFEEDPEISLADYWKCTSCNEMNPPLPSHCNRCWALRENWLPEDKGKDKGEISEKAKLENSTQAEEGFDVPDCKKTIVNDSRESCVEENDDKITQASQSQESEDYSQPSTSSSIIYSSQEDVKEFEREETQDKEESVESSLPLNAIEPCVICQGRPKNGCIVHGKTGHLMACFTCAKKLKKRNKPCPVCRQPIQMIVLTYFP
Description: The assay was performed in the buffer: 100 mM potassium phosphate, pH 7.5; 100 ug/mL bovine gamma globulin; 0.02% sodium azide, 0.01% Triton X-100).

IC50, < 1 µM:
CC(C)(C)C[C@H]1N[C@@H](C(=O)NCCNS(C)(=O)=O)[C@H](c2cccc(Cl)c2F)[C@@]12C(=O)Nc1cc(Cl)c(F)cc12, CC(C)(C)C[C@H]1N[C@@H](C(=O)NCCCNS(C)(=O)=O)[C@H](c2cccc(Cl)c2F)[C@@]12C(=O)Nc1cc(Cl)c(F)cc12, CC(C)(C)C[C@H]1N[C@@H](C(=O)NCC[C@H]2CC[C@H](NS(C)(=O)=O)C2)[C@H](c2cccc(Cl)c2F)[C@@]12C(=O)Nc1cc(Cl)c(F)cc12, CC(C)(C)C[C@H]1N[C@@H](C(=O)NCC[C@H]2CC[C@H](N)C2)[C@H](c2cccc(Cl)c2F)[C@@]12C(=O)Nc1cc(Cl)c(F)cc12

Reference: ChEMBL document CHEMBL3638529, “Spiro-oxindole MDM2 antagonists” (2015)
